# Source: US7410976B2, “Spirochromanone derivatives” (Merck & Co., Inc., priority 2005, dated 2008)
# Structures can show the parent of a compound that is named as a salt.
# How the values were obtained:
# [1] = biological target: human ACC1 (Homo sapiens, UniProt Q13085); experiment: Acetyl CoA carboxylase (ACC) activity inhibition test, human ACC1; assay type: biochemical; settings: 1 μmol/liter compound; control: DMSO well without test compound; read-out: Inhibition (%) by 1 μmol/liter Chemical, human ACC1
# Description: (§1) A. Pharmacological Test Example (Acetyl CoA Carboxylase (ACC) Activity Inhibition Test)
# (§2) Concretely, 0.8 μl of the diluted test compound is added to each well of 96-well assay plate (Perkin Elmer Opti Plate), then 40 μl of a substrate solution (50 mM Hepes sodium (pH 7.5), 2 mM DTT, 10 mM ATP, 500 μM acetyl CoA, 0.17 mM NaH[^14C]O3 (58 mCi/mmol, by Amersham), 8 mM NaHCO3) is added to each well, and 40 μL of an enzyme solution (1 to 2 nM human ACC1 or human ACC2, 50 mM Hepes sodium (pH 7.5), 2 mM DTT, 40 mM MgCl2, 40 mM tripotassium citrate 1 mg/ml fetal bovine serum albumin) is added thereto. Then, the upper side of the plate is sealed up, and the plate is incubated with gently stirring at 37° C. for 40 minutes. Next, 20 μl of 1N HCl is added to each well to stop the enzyme reaction, and the assay plate is stirred overnight to remove the unreacted NaH[^14C]O3. Next, 100 μl of a scintillator (Perkin Elmer's Microscinti 40) is added to each well and the plate is stirred, then the radioactivity of the fixed [^14C] is counted using a microplate scintillation counter (Perlin Elmer's Topcount), the radioactivity of which represents the enzyme activity in each well. The human ACC1 and human ACC2 enzyme-inhibition activities of the test compounds are calculated, based on the radioactivity of the well added by DMSO without test compound as a control.
# [2] = biological target: human ACC2 (Homo sapiens, UniProt O00763); experiment: Acetyl CoA carboxylase (ACC) activity inhibition test, human ACC2; assay type: biochemical; settings: 1 μmol/liter compound; control: DMSO well without test compound; read-out: Inhibition (%) by 1 μmol/liter Chemical, human ACC2
# Description: as §1, §2
# Chain of human ACC2 (O00763 whole entry): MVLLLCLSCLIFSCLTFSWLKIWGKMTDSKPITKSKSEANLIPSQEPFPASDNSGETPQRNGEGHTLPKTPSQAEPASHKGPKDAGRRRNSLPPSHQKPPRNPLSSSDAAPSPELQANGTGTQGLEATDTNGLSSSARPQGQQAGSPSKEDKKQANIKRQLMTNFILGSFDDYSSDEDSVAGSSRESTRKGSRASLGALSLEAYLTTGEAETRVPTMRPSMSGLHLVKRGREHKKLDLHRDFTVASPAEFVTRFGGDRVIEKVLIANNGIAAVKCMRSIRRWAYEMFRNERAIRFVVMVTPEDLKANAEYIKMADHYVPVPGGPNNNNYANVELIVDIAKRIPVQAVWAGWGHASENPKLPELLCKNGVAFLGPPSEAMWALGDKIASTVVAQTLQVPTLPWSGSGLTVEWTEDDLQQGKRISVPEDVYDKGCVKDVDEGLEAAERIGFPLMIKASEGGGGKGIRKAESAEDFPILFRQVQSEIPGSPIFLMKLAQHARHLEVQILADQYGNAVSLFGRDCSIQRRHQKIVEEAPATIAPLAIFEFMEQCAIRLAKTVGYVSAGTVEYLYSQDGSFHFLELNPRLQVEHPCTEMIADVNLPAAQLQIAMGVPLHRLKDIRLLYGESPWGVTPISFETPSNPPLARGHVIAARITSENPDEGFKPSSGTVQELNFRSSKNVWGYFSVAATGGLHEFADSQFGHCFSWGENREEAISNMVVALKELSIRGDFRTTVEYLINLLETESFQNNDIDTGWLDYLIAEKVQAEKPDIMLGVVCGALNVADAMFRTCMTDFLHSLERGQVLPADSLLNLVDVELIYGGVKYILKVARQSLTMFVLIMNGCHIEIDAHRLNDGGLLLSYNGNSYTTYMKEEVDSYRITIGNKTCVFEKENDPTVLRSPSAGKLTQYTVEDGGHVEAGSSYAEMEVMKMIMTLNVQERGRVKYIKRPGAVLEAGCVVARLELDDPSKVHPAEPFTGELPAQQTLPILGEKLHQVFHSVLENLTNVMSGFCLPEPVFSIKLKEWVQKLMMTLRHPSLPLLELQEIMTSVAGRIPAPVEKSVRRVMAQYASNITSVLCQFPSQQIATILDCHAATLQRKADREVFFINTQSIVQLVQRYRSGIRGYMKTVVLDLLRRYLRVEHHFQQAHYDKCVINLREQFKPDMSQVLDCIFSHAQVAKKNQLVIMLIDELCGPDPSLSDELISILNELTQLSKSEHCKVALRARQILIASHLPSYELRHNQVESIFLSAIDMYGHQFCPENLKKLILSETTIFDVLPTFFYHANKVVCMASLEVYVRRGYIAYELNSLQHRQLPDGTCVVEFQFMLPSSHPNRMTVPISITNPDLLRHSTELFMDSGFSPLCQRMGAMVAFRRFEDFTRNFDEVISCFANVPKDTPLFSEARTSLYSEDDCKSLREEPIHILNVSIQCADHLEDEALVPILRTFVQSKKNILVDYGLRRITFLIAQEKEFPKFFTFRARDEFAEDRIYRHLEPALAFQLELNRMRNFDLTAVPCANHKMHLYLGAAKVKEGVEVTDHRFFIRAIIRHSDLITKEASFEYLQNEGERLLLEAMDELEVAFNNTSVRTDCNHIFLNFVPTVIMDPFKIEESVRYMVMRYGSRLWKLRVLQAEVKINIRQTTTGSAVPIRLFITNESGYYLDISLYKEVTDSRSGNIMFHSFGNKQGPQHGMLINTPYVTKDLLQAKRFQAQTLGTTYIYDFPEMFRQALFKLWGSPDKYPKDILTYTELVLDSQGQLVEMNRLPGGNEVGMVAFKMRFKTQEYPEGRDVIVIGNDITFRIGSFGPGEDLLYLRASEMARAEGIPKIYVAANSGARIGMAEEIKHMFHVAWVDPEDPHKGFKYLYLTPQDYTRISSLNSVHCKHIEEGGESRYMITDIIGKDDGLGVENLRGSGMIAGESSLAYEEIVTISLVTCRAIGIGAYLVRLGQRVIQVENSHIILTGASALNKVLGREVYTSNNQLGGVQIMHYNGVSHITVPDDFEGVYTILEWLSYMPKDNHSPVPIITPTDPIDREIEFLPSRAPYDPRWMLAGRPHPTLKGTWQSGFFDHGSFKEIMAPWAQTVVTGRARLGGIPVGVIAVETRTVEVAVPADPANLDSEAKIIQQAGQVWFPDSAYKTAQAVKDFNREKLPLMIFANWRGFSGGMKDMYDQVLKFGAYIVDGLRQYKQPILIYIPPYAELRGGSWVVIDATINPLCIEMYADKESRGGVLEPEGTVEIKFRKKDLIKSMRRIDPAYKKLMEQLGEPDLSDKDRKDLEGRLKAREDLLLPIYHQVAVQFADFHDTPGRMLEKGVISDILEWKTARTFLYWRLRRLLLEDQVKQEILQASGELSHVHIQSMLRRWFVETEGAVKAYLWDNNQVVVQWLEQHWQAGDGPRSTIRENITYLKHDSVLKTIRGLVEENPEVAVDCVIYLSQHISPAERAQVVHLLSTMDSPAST
SMILES,inhibition at 1 µM [1],inhibition at 1 µM [2]
"CCOc1cc(C(=O)N2CCC3(CC2)CC(=O)c2cc(-c4nnn[nH]4)ccc2O3)nc2c(C3CC3)nccc12 [Example 21, 1′-[(8-cyclopropyl-4-ethoxy-1.7-naphthyridin-2-yl)carbonyl]-6-(1H-tetrazol-5-yl)spiro[chroman-2,4′-piperidin]-4-one]",99%,97%
"COc1cc(C(=O)N2CCC3(CC2)CC(=O)c2cc(N)ccc2O3)nc2c(OC)cccc12 [Example 5, 6-amino-1′-[(4,8-dimethoxyquinolin-2-yl)carbonyl]spiro[chroman-2,4′-piperidin]-4-one]",97%,97%
"COc1cc(C(=O)N2CCC3(CC2)CC(=O)c2cc(-c4nnn[nH]4)ccc2O3)nc2c(OC)cccc12 [Example 18, 1′-[(4,8-dimethoxyquinolin-2-yl)carbonyl]-6-(1H-tetrazol-5-yl)spiro[chroman-2,4′-piperidin]-4-one sodium salt]",97%,99%
"COc1cc(C(=O)N2CCC3(CC2)CC(=O)c2cc(-c4nc[nH]n4)ccc2O3)nc2c(OC)cccc12 [Example 27, 1′-[(4,8-dimethoxyquinolin-2-yl)carbonyl]-6-(1H-1,2,4-triazol-3-yl)-spiro[chroman-2,4′-piperidin]-4-one]",101%,100%
"COc1cc(C(=O)N2CCC3(CC2)CC(=O)c2ccccc2O3)nc2c(OC)cccc12 [Example 4, 1′-[(4,8-dimethoxyquinolin-2-yl)carbonyl]spiro[chroman-2,4′-piperidin]-4-one]",93%,96%

# Second part, the compound after the results:
inhibition at 1 µM [1],inhibition at 1 µM [2],SMILES
100%,99%,"COc1cc(C(=O)N2CCC3(CC2)CC(=O)c2cc(Nc4ccnn4C)ccc2O3)nc2c(OC)cccc12 [Example 10, 1′-[(4,8-dimethoxyquinolin-2-yl)carbonyl]-6-[(1-methyl-1H-pyrazol-5-yl)amino]spiro[chroman-2,4′-piperidin]-4-one]"
82%,85%,"COc1cc(C(=O)N2CCC3(CC2)CC(=O)c2cc(NC(C)=O)ccc2O3)nc2ccccc12 [Example 2, N-{1′-[(4-methoxyquinolin-2-yl)carbonyl]-4-oxospiro[chroman-2,4′-piperidin]-6-yl}acetamide hydrochloride]"
100%,98%,"COc1cc(C(=O)N2CCC3(CC2)CC(=O)c2cc(NC(C)=O)ccc2O3)nc2c(OC)cccc12 [Example 3, N-{1′-[(4,8-dimethoxyquinolin-2-yl)carbonyl]-4-oxospiro[chroman-2,4′-piperidin]-6-yl}acetamide]"
